Read-outs that look alike come from different tables or passages of the source.
Assays:
[1] = target: T1, mu opioid receptor (Rattus norvegicus, UniProt P33535); assay: Rat Brain Mu Opioid Receptor Binding Assay
T1 construct: Following incubation with the mu selective peptide ligand, ˜0.8 nM [^3H]DAMGO; from tissue; host or cells: forebrain of male Wistar rats (Charles River)

[2] = target: T2, delta opioid receptor (Rattus norvegicus, UniProt P33533); assay: Rat Brain Delta Opioid Receptor Binding Assay
T2 construct: from tissue; host or cells: forebrain of male Wistar rats (Charles River)
T2 sequence (P33533 whole entry): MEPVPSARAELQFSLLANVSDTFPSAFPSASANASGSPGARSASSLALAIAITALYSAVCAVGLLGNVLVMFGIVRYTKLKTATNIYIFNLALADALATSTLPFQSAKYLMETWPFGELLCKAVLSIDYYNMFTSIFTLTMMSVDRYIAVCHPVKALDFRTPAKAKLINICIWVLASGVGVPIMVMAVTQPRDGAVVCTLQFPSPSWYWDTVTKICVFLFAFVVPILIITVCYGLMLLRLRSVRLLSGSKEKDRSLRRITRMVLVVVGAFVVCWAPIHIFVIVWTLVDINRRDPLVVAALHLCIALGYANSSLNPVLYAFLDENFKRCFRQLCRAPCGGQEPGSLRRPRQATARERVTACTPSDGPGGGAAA

[3] = rat forebrain membranes, [3H]DAMGO, read-out: mu (Ki)
[4] = rat forebrain membranes, [3H]DPDPE or [3H]naltrindole, read-out: delta (Ki)

T1 sequence (P33535 whole entry): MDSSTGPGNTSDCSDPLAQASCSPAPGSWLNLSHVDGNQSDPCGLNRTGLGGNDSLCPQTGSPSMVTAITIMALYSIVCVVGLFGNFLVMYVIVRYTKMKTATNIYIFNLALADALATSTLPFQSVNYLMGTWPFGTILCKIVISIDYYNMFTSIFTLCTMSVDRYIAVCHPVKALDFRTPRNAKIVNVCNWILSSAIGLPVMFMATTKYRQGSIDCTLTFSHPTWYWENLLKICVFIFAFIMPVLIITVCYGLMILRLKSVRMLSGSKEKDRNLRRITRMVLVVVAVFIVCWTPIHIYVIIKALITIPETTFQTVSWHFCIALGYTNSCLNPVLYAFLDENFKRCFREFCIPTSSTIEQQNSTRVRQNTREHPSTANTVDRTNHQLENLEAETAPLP

Row | SMILES | Ki [1] | Ki [2] | Ki [1, 3] | Ki [2, 4]
1 | c1ccc2c(c1)Oc1cc(-c3ccoc3)ccc1C2C1CC2CCC(C1)N2 (stereo not drawn) [Compound 5b, 3-(3-Furan-3-yl-9H-xanthen-9-yl)-8-aza-bicyclo[3.2.1]octane] | 19700 nM | 3450 nM | – | –
2 | CC(=O)Nc1ccccc1-c1ccc2c(c1)Oc1c(O)cccc1C2C1CC2CCC(C1)N2 (stereo not drawn) [Compound 3l, N-{2-[9-(8-Aza-bicyclo[3.2.1]oct-3-yl)-5-hydroxy-9H-xanthen-3-yl]-phenyl}-acetamide] | 20.4 nM | 1.55 nM | – | –
3 | CCN(CC)C(=O)c1ccc2c(c1)Oc1c(C)cccc1C2C1CC2CCC(C1)N2 (stereo not drawn) [Compound 6h, 9-(8-Aza-bicyclo[3.2.1]oct-3-yl)-5-methyl-9H-xanthene-3-carboxylic acid diethylamide] | 4700 nM | 73 nM | – | –
4 | c1ccc(CN2C3CCC2CC(C2c4ccccc4Oc4cc(-c5ccncc5)ccc42)C3)nc1 (stereo not drawn) [Compound 22b, 8-Pyridin-2-ylmethyl-3-(3-pyridin-4-yl-9H-xanthen-9-yl)-8-aza-bicyclo[3.2.1]octane] | 305 nM | 71.6 nM | – | –
5 | CCN(CC)C(=O)c1ccc2c(c1)Oc1ccccc1C2C1CC2CCC(C1)N2Cc1ncc[nH]1 (stereo not drawn) [Compound 16a, 9-[8-(1H-Imidazol-2-ylmethyl)-8-aza-bicyclo[3.2.1]oct-3-yl]-9H-xanthene-3-carboxylic acid diethylamide] | 2000 nM | 114 nM | – | –
6 | c1ccc2c(c1)Oc1cc(-c3cnc4ccccc4c3)ccc1C2C1CC2CCC(C1)N2 (stereo not drawn) [Compound 8b, 3-[9-(8-Aza-bicyclo[3.2.1]oct-3-yl)-9H-xanthen-3-yl]-quinoline] | 27700 nM | 4860 nM | – | –
7 | CC(=O)Nc1ccccc1-c1ccc2c(c1)Oc1ccccc1C2C1CC2CCC(C1)N2Cc1ccoc1 (stereo not drawn) [Compound 13b, N-{2-[9-(8-Furan-3-ylmethyl-8-aza-bicyclo[3.2.1]oct-3-yl)-9H-xanthen-3-yl]-phenyl}-acetamide] | 1490 nM | 38.7 nM | – | –
8 | c1ccc2c(c1)Oc1cc(-c3ccncc3)ccc1C2C1CC2CCC(C1)N2 (stereo not drawn) [Compound 20b, 3-(3-Pyridin-4-yl-9H-xanthen-9-yl)-8-aza-bicyclo[3.2.1]octane] | 3490 nM | 194 nM | – | –
9 | CC(=O)Nc1ccccc1-c1ccc2c(c1)Oc1ccccc1C2C1CC2CCC(C1)N2 (stereo not drawn) [Compound 7b, N-{2-[9-(8-Aza-bicyclo[3.2.1]oct-3-yl)-9H-xanthen-3-yl]-phenyl}-acetamide] | 6380 nM | 426 nM | – | –
10 | CCN(CC)C(=O)c1ccc2c(c1)Oc1c(-c3ccccc3)cccc1C2C1CC2CCC(C1)N2 (stereo not drawn) [Compound 7d, 9-(8-Aza-bicyclo[3.2.1]oct-3-yl)-5-phenyl-9H-xanthene-3-carboxylic acid diethylamide] | – | 91 nM | 8200 nM | –
11 | CC(=O)Nc1ccccc1-c1ccc2c(c1)Oc1ccccc1C2C1CC2CCC(C1)N2Cc1ccccn1 (stereo not drawn) [Compound 15b, N-{2-[9-(8-Pyridin-2-ylmethyl-8-aza-bicyclo[3.2.1]oct-3-yl)-9H-xanthen-3-yl]-phenyl}-acetamide] | 947 nM | 102 nM | – | –
12 | COc1cccc2c1Oc1cc(-c3ccccc3NC(C)=O)ccc1C2C1CC2CCC(C1)N2 (stereo not drawn) [Compound 2l, N-{2-[9-(8-Aza-bicyclo[3.2.1]oct-3-yl)-5-methoxy-9H-xanthen-3-yl]-phenyl}-acetamide] | – | – | 3700 nM | 180 nM
13 | CC(=O)Nc1ccccc1-c1ccc2c(c1)Oc1ccccc1C2C1CC2CCC(C1)N2Cc1ccccc1 (stereo not drawn) [Compound 16b, N-{2-[9-(8-Benzyl-8-aza-bicyclo[3.2.1]oct-3-yl)-9H-xanthen-3-yl]-phenyl}-acetamide] | > 10000 nM | > 10000 nM | – | –
14 | c1cncc(-c2ccc3c(c2)Oc2ccccc2C3C2CC3CCC(C2)N3Cc2cccs2)c1 (stereo not drawn) [Compound 9b, 3-(3-Pyridin-3-yl-9H-xanthen-9-yl)-8-thiophen-2-ylmethyl-8-aza-bicyclo[3.2.1]octane] | 1610 nM | 182 nM | – | –
15 | c1csc(CN2C3CCC2CC(C2c4ccccc4Oc4cc(-c5ccncc5)ccc42)C3)c1 (stereo not drawn) [Compound 21b, 3-(3-Pyridin-4-yl-9H-xanthen-9-yl)-8-thiophen-2-ylmethyl-8-aza-bicyclo[3.2.1]octane] | 930 nM | 98 nM | – | –
16 | CCN(CC)C(=O)c1ccc2c(c1)Oc1ccccc1C2C1CC2CCC(C1)N2C (stereo not drawn) [Compound 17a, 9-(8-Methyl-8-aza-bicyclo[3.2.1]oct-3-yl)-9H-xanthene-3-carboxylic acid diethylamide] | > 10000 nM | > 10000 nM | – | –
17 | CCN(CC)C(=O)c1ccc2c(c1)Oc1c(Cl)cccc1C2C1CC2CCC(C1)N2 (stereo not drawn) [Compound 6i, 9-(8-Aza-bicyclo[3.2.1]oct-3-yl)-5-chloro-9H-xanthene-3-carboxylic acid diethylamide] | > 10000 nM | 3350 nM | – | –
18 | c1ccc2c(c1)Oc1cc(-c3nnn[nH]3)ccc1C2C1CC2CCC(C1)N2 (stereo not drawn) [Compound 5j, 3-[3-(1H-Tetrazol-5-yl)-9H-xanthen-9-yl]-8-aza-bicyclo[3.2.1]octane] | 4780 nM | 477 nM | – | –
19 | CCN(CC)C(=O)c1ccc2c(c1)Oc1ccccc1C2C1CC2CCC(C1)N2 (stereo not drawn) [Compound 9a, 9-(8-Aza-bicyclo[3.2.1]oct-3-yl)-9H-xanthene-3-carboxylic acid diethylamide] | 6450 nM | 140 nM | – | –
20 | COc1cccc2c1Oc1cc(-c3cccnc3)ccc1C2C1CC2CCC(C1)N2 (stereo not drawn) [Compound 7k, 3-(5-Methoxy-3-pyridin-3-yl-9H-xanthen-9-yl)-8-aza-bicyclo[3.2.1]octane] | – | – | 7740 nM | 655 nM
21 | c1ccc(CN2C3CCC2CC(C2c4ccccc4Oc4cc(-c5ccncc5)ccc42)C3)cc1 (stereo not drawn) [Compound 23b, 8-Benzyl-3-(3-pyridin-4-yl-9H-xanthen-9-yl)-8-aza-bicyclo[3.2.1]octane] | 890 nM | 99.7 nM | – | –
22 | c1ccc2c(c1)Oc1cc(-c3ccsc3)ccc1C2C1CC2CCC(C1)N2 (stereo not drawn) [Compound 6b, 3-(3-Thiophen-3-yl-9H-xanthen-9-yl)-8-aza-bicyclo[3.2.1]octane] | 83200 nM | 5800 nM | – | –
23 | CCN(CC)C(=O)c1ccc2c(c1)Oc1ccc(F)cc1C2C1CC2CCC(C1)N2 (stereo not drawn) [Compound 7e, 9-(8-Aza-bicyclo[3.2.1]oct-3-yl)-7-fluoro-9H-xanthene-3-carboxylic acid diethylamide] | 44000 nM | 294 nM | – | –
24 | c1cncc(-c2ccc3c(c2)Oc2ccccc2C3C2CC3CCC(C2)N3)c1 (stereo not drawn) [Compound 3b, 3-(3-Pyridin-3-yl-9H-xanthen-9-yl)-8-aza-bicyclo[3.2.1]octane] | 4440 nM | 3150 nM | – | –
25 | c1ccc2c(c1)Oc1cc(-c3ccncc3)ccc1C2C1CC2CCC(C1)N2Cc1ccoc1 (stereo not drawn) [Compound 25b, 8-Furan-3-ylmethyl-3-(3-pyridin-4-yl-9H-xanthen-9-yl)-8-aza-bicyclo[3.2.1]octane] | 775 nM | 22.4 nM | – | –
26 | Oc1cccc2c1Oc1cc(-c3cccnc3)ccc1C2C1CC2CCC(C1)N2 (stereo not drawn) [Compound 8k, 9-(8-Aza-bicyclo[3.2.1]oct-3-yl)-6-pyridin-3-yl-9H-xanthen-4-ol] | 27.2 nM | 9.61 nM | – | –
27 | CC(=O)Nc1ccccc1-c1ccc2c(c1)Oc1ccccc1C2C1CC2CCC(C1)N2CCc1ccccc1 (stereo not drawn) [Compound 17b, N-{2-[9-(8-Phenethyl-8-aza-bicyclo[3.2.1]oct-3-yl)-9H-xanthen-3-yl]-phenyl}-acetamide] | – | 64.8 nM | 116 nM | –

From patent publication US7589104B2, “Tricyclic-bridged piperidinyline derivatives as §-opioid modulators” (Janssen Pharmaceutica NV, priority 2004, dated 2009)
